In BindingDB's records for doi:10.1016/j.bmcl.2010.06.021 (Shujitsu University, 2010):

Target: Beta-secretase 1 (Homo sapiens, UniProt P56817)
Test: Inhibition of BACE1 after 60 mins by FRET assay

Sequence of Beta-secretase 1 (P56817 whole entry): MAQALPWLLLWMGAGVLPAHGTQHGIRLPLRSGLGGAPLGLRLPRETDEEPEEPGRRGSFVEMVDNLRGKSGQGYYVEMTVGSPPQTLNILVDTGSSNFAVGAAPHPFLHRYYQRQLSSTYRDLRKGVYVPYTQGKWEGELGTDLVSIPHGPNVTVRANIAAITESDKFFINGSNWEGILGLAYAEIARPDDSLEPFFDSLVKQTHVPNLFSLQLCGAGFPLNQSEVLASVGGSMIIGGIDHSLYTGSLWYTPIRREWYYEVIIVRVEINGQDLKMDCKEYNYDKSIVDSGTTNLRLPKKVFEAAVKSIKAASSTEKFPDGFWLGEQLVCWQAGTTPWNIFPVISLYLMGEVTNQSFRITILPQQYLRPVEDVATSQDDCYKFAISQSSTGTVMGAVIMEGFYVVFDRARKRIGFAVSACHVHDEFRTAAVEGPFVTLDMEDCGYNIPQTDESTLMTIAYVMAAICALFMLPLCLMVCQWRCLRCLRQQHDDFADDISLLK

| IC50 [µM] | Compound |
| --- | --- |
| > 10 | O=c1cc(O)cc2oc(-c3ccc(O)c(-c4c(O)cc5oc(-c6ccc(O)cc6)cc(=O)c5c4O)c3)cc(O)c1-2 |
| > 10 | O=c1cc(O)cc2oc(-c3ccc(Oc4c(O)cc5oc(-c6ccc(O)cc6)cc(=O)c5c4O)cc3)cc(O)c1-2 |
| > 10 | COc1ccc(-c2cc(O)c3c(=O)cc(O)cc-3o2)cc1-c1c(OC)cc(O)c2c(=O)cc(-c3ccc(O)cc3)oc12 [4',7''-di-O-methyl-amentoflavone] |
| > 10 | COc1ccc(-c2cc(=O)c3c(O)cc(OC)c(-c4cc(-c5cc(O)c6c(=O)cc(O)cc-6o5)ccc4O)c3o2)cc1 [7'',4'''-dimethylamentoflavone] |
| > 10 | COc1ccc(-c2cc(=O)c3c(O)cc(OC)c(-c4cc(-c5cc(O)c6c(=O)cc(OC)cc-6o5)ccc4OC)c3o2)cc1 [7,4',7'',4'''-O-methyl-amentoflavone] |
| > 10 | COc1cc2oc(-c3ccc(OC)c(-c4c(OC)cc(O)c5c(=O)cc(-c6ccc(O)cc6)oc45)c3)cc(O)c-2c(=O)c1 [7-O-methyl-isoginkgetin] |
| > 10 | COc1ccc(-c2cc(=O)c3c(O)cc(OC)c(-c4cc(-c5cc(O)c6c(=O)cc(OC)cc-6o5)ccc4O)c3o2)cc1 [heveaflavone] |
| > 10 | COc1ccc(-c2cc(=O)c3c(O)cc(OC)c(-c4cc(-c5cc(O)c6c(=O)cc(O)cc-6o5)ccc4OC)c3o2)cc1 [kayaflavone] |
| > 10 | COc1ccc(-c2cc(=O)c3c(O)cc(O)c(-c4cc(-c5cc(O)c6c(=O)cc(OC)cc-6o5)ccc4OC)c3o2)cc1 [sciadopitisin] |
